What was measured:
Assay type in all cases: in vivo
[1] = test system: Alopecurus myosuroides; test: Pre-emergence herbicidal effect against ALOMY; conditions: 1280 g/ha, visual score after 3 weeks, 100% = plants have died, 0% = like control plants
Excerpt: (§1) 1. Pre-emergence herbicidal effect and crop plant compatibility Seeds of monocotyledonous and dicotyledonous weed plants and crop plants are laid out in sandy loam soil in wood-fibre pots and covered with soil. The compounds of the invention, formulated in the form of wettable powders (WP) or as emulsion concentrates (EC), are then applied to the surface of the covering soil as aqueous suspension or emulsion at a water application rate equating to 600 to 800 L/ha with addition of 0.2% wetting agent. After the treatment, the pots are placed in a greenhouse and kept under good growth conditions for the trial plants. The damage to the test plants is scored visually after a test period of 3 weeks by comparison with untreated controls (herbicidal activity in percent (%): 100% activity=the plants have died, 0% activity=like control plants). [table]

[2] = test system: Digitaria sanguinalis; test: Pre-emergence herbicidal effect against DIGSA; conditions: 1280 g/ha, visual score after 3 weeks, 100% = plants have died, 0% = like control plants
Excerpt: as §1

[3] = test system: Echinochloa crus-galli; test: Pre-emergence herbicidal effect against ECHCG; conditions: 1280 g/ha, visual score after 3 weeks, 100% = plants have died, 0% = like control plants
Excerpt: as §1

[4] = test system: Lolium rigidum; test: Pre-emergence herbicidal effect against LOLRI; conditions: 1280 g/ha, visual score after 3 weeks, 100% = plants have died, 0% = like control plants
Excerpt: as §1

[5] = test system: Poa annua; test: Pre-emergence herbicidal effect against POAAN; conditions: 1280 g/ha, visual score after 3 weeks, 100% = plants have died, 0% = like control plants
Excerpt: as §1

[6] = test system: Setaria viridis; test: Pre-emergence herbicidal effect against SETVI; conditions: 1280 g/ha, visual score after 3 weeks, 100% = plants have died, 0% = like control plants
Excerpt: as §1

[7] = test system: Amaranthus retroflexus; test: Pre-emergence herbicidal effect against AMARE; conditions: 1280 g/ha, visual score after 3 weeks, 100% = plants have died, 0% = like control plants
Excerpt: as §1

[8] = test system: Tripleurospermum inodorum; test: Pre-emergence herbicidal effect against MATIN; conditions: 1280 g/ha, visual score after 3 weeks, 100% = plants have died, 0% = like control plants
Excerpt: as §1

[9] = test system: Stellaria media; test: Pre-emergence herbicidal effect against STEME; conditions: 1280 g/ha, visual score after 3 weeks, 100% = plants have died, 0% = like control plants
Excerpt: as §1

[10] = test system: Veronica persica; test: Pre-emergence herbicidal effect against VERPE; conditions: 1280 g/ha, visual score after 3 weeks, 100% = plants have died, 0% = like control plants
Excerpt: as §1

[11] = test system: Alopecurus myosuroides; test: Post-emergence herbicidal effect against ALOMY; conditions: 1280 g/ha, visual score after about 3 weeks, 100% = plants have died, 0% = like control plants
Method: (§2) [table] 2. Post-emergence herbicidal effect and crop plant compatibility Seeds of monocotyledonous and dicotyledonous weed and crop plants are laid out in sandy loam soil in wood-fibre pots, covered with soil and cultivated in a greenhouse under good growth conditions. 2 to 3 weeks after sowing, the test plants are treated at the one-leaf stage. The compounds of the invention, formulated in the form of wettable powders (WP) or as emulsion concentrates (EC), are then sprayed onto the green parts of the plants as aqueous suspension or emulsion at a water application rate equating to 600 to 800 l/ha with addition of 0.2% wetting agent. After the test plants have been left to stand in the greenhouse under optimal growth conditions for about 3 weeks, the action of the preparations is assessed visually in comparison to untreated controls (herbicidal action in percent (%): 100% activity=the plants have died, 0% activity=like control plants).

[12] = test system: Poa annua; test: Post-emergence herbicidal effect against POAAN; conditions: 1280 g/ha, visual assessment about 3 weeks after treatment, 100% = plants have died, 0% = like control plants
Method: as §2

[13] = test system: Amaranthus retroflexus; test: Post-emergence herbicidal effect against AMARE; conditions: 1280 g/ha, visual assessment about 3 weeks after treatment, 100% = plants have died, 0% = like control plants
Method: as §2

[14] = test system: Tripleurospermum inodorum; test: Post-emergence herbicidal effect against MATIN; conditions: 1280 g/ha, visual assessment about 3 weeks after treatment, 100% = plants have died, 0% = like control plants
Method: as §2

[15] = test system: Stellaria media; test: Post-emergence herbicidal effect against STEME; conditions: 1280 g/ha, visual assessment about 3 weeks after treatment, 100% = plants have died, 0% = like control plants
Method: as §2

[16] = test system: Veronica persica; test: Post-emergence herbicidal effect against VERPE; conditions: 1280 g/ha, visual assessment about 3 weeks after treatment, 100% = plants have died, 0% = like control plants
Method: as §2

[17] = test system: Digitaria sanguinalis; test: Post-emergence herbicidal effect against DIGSA; conditions: 1280 g/ha, visual score after about 3 weeks, 100% = plants have died, 0% = like control plants
Method: as §2

[18] = test system: Echinochloa crus-galli; test: Post-emergence herbicidal effect against ECHCG; conditions: 1280 g/ha, visual score after about 3 weeks, 100% = plants have died, 0% = like control plants
Method: as §2

[19] = test system: Setaria viridis; test: Post-emergence herbicidal effect against SETVI; conditions: 1280 g/ha, visual assessment about 3 weeks after treatment, 100% = plants have died, 0% = like control plants
Method: as §2

[20] = test system: Abutylon threophrasti; test: Post-emergence herbicidal effect against ABUTH; conditions: 1280 g/ha, visual assessment about 3 weeks after treatment, 100% = plants have died, 0% = like control plants
Method: as §2

[21] = test system: Bassia scoparia; test: Post-emergence herbicidal effect against KCHSC; conditions: 1280 g/ha, visual assessment about 3 weeks after treatment, 100% = plants have died, 0% = like control plants
Method: as §2

| SMILES | Pre-emergence action against ALOMY [1] [%] | Pre-emergence action against DIGSA [2] [%] | Pre-emergence action against ECHCG [3] [%] | Pre-emergence action against LOLRI [4] [%] | Pre-emergence action against POAAN [5] [%] | Pre-emergence action against SETVI [6] [%] | Pre-emergence action against AMARE [7] [%] | Pre-emergence action against MATIN [8] [%] | Pre-emergence action against STEME [9] [%] | Pre-emergence action against VERPE [10] [%] | Post-emergence action against ALOMY [11] [%] | Post-emergence action against POAAN [12] [%] | Post-emergence action against AMARE [13] [%] | Post-emergence action against MATIN [14] [%] | Post-emergence action against STEME [15] [%] | Post-emergence action against VERPE [16] [%] | Post-emergence action against DIGSA [17] [%] | Post-emergence action against ECHCG [18] [%] | Post-emergence action against SETVI [19] [%] | Post-emergence action against ABUTH [20] [%] | also measured |
| --- | --- | --- | --- | --- | --- | --- | --- | --- | --- | --- | --- | --- | --- | --- | --- | --- | --- | --- | --- | --- | --- |
| CCOC(=O)CSc1nn(-c2cccc(F)c2F)c(-c2ccccc2)c1Br [Example I-004] | 90 | 100 | 90 | 100 | 100 | 100 | 100 | 100 | 100 | 100 | 100 | 100 | 90 | 100 | 90 | 90 | – | – | – | – | – |
| CCOC(=O)CSc1nn(-c2ccccc2F)c(-c2ccc(F)c(F)c2)c1C(F)(F)F [Example I-018] | 90 | 100 | 100 | 100 | 100 | 100 | – | 100 | 100 | 100 | – | 100 | – | 90 | – | 100 | 90 | 90 | 100 | 90 | – |
| CCOC(=O)CSc1nn(-c2cc(F)ccc2F)c(-c2ccc(F)cc2)c1Br [Example I-020] | 90 | 100 | – | 100 | 100 | 100 | – | 100 | 100 | 100 | 100 | 90 | – | 90 | 90 | 90 | 90 | 90 | 90 | – | Post-emergence action against KCHSC [21]: 90% |
| CC(Sc1nn(-c2ccccc2F)c(-c2ccc(F)c(F)c2)c1Br)C(=O)O (stereo not drawn) [Example I-022] | 90 | 100 | 90 | 100 | 90 | 100 | 90 | 90 | 100 | 100 | 100 | 100 | – | 100 | 90 | 100 | 90 | 100 | – | 90 | Post-emergence action against KCHSC [21]: 90% |
| O=C(O)CSc1nn(-c2ccccc2F)c(-c2ccc(F)c(F)c2)c1[N+](=O)[O-] [Example I-024] | 90 | 100 | 90 | 100 | 100 | 100 | – | 100 | 100 | 100 | 100 | 100 | – | 100 | – | 100 | 100 | 90 | 100 | 90 | Post-emergence action against KCHSC [21]: 90% |
| CCOC(=O)CSc1nn(-c2ccccc2F)c(-c2sncc2C)c1Br [Example V-001] | – | 90 | – | – | 90 | – | 100 | 90 | – | – | – | – | 100 | – | – | 90 | – | – | – | – | – |
| Cc1cnsc1-c1c(Br)c(SCC(=O)O)nn1-c1ccccc1F [Example V-002] | – | – | – | – | 100 | 100 | 100 | 100 | – | – | – | – | – | – | – | – | – | – | – | – | – |
| O=C(O)CSc1nn(-c2ccccc2)c(-c2cncnc2)c1Br [III-002] | – | 100 | 100 | – | 100 | 100 | 100 | 100 | 100 | 100 | – | 100 | – | 90 | 90 | 100 | – | – | – | – | – |
| CCOC(=O)CSc1nn(-c2ccccc2F)c(-c2cc(Cl)cs2)c1Br [IV-001] | – | – | – | 90 | 90 | – | 100 | 90 | 100 | 90 | – | – | 90 | – | – | 90 | – | – | – | – | – |
| CCOC(=O)CSc1nn(-c2ccccc2F)c(-c2cnccn2)c1Br [VI-001] | – | 90 | – | – | 100 | – | – | 90 | 90 | – | 90 | 100 | 90 | 100 | – | 90 | – | – | – | 90 | – |
| COC(=O)CNC(=O)CSc1nn(-c2ccccc2F)c(-c2ccc(F)c(F)c2)c1Cl [VII-001] | 90 | 100 | – | 100 | 100 | 100 | – | 100 | 100 | 100 | 100 | 100 | – | 90 | 90 | 90 | 100 | 100 | 90 | 90 | Post-emergence action against KCHSC [21]: 90% |

From patent publication US20230126893A1, “[(1,4,5-TRISUBSTITUTED-1H-PYRAZOL-3-YL)SULFANYL]ACETIC ACID DERIVATIVES, SALTS THEREOF, AND USE THEREOF AS ACTIVE HERBICIDAL INGREDIENTS” (BAYER AKTIENGESELLSCHAFT, priority 2020, published 2023)
